Source: PMC10924921, “Mi-2β promotes immune evasion in melanoma by activating EZH2 methylation” (Nature Communications, 2024)

Legend:
Experiment in all cases: biochemical
Set-up in all cases: KINOMEscan active-site competition binding panel (468 kinase assays), per cent of control at 1000 nM
Conditions in all cases: KINOMEscan per cent of control (binding competition); read-out: Percent Control
ALK(C1156Y) = ALK(C1156Y) (Homo sapiens, UniProt Q9UM73, C1156Y)
From the text: (§1) Figure S7 / Percent Control

AXL = AXL (Homo sapiens, UniProt P30530)
From the text: as §1

BMPR1A = BMPR1A (Homo sapiens, UniProt P36894)
From the text: as §1

BTK = BTK (Homo sapiens, UniProt Q06187)
From the text: as §1

CSF1R = CSF1R (Homo sapiens, UniProt P07333)
From the text: as §1

CSNK1A1L = CSNK1A1L (Homo sapiens, UniProt Q8N752)
From the text: as §1

EGFR = EGFR (Homo sapiens, UniProt P00533)
From the text: as §1

EPHA8 = EPHA8 (Homo sapiens, UniProt P29322)
From the text: as §1

ERK5 = target: T1, ERK5 (Homo sapiens, UniProt Q13164)
T1 construct: gene MAPK7
From the text: as §1

FLT4 = FLT4 (Homo sapiens, UniProt P35916)
From the text: as §1

HCK = HCK (Homo sapiens, UniProt P08631)
From the text: as §1

HIPK4 = HIPK4 (Homo sapiens, UniProt Q8NE63)
From the text: as §1

HPK1 = target: T2, HPK1 (Homo sapiens, UniProt Q92918)
T2 construct: gene MAP4K1
From the text: as §1

JNK1 = target: T3, JNK1 (Homo sapiens, UniProt P45983)
T3 construct: gene MAPK8
From the text: as §1

JNK2 = target: T4, JNK2 (Homo sapiens, UniProt P45984)
T4 construct: gene MAPK9
From the text: as §1

LCK = LCK (Homo sapiens, UniProt P06239)
From the text: as §1

LRRK2 = LRRK2 (Homo sapiens, UniProt Q5S007)
From the text: as §1

MRCKA = target: T5, MRCKA (Homo sapiens, UniProt Q5VT25)
T5 construct: gene CDC42BPA
From the text: as §1

NEK1 = NEK1 (Homo sapiens, UniProt Q96PY6)
From the text: as §1

PIM1 = PIM1 (Homo sapiens, UniProt P11309)
From the text: as §1

PRKCI = PRKCI (Homo sapiens, UniProt P41743)
From the text: as §1

PRKD3 = PRKD3 (Homo sapiens, UniProt O94806)
From the text: as §1

SBK1 = SBK1 (Homo sapiens, UniProt Q52WX2)
From the text: as §1

TAOK2 = TAOK2 (Homo sapiens, UniProt Q9UL54)
From the text: as §1

TXK = TXK (Homo sapiens, UniProt P42681)
From the text: as §1

Chain of EGFR (P00533 whole entry): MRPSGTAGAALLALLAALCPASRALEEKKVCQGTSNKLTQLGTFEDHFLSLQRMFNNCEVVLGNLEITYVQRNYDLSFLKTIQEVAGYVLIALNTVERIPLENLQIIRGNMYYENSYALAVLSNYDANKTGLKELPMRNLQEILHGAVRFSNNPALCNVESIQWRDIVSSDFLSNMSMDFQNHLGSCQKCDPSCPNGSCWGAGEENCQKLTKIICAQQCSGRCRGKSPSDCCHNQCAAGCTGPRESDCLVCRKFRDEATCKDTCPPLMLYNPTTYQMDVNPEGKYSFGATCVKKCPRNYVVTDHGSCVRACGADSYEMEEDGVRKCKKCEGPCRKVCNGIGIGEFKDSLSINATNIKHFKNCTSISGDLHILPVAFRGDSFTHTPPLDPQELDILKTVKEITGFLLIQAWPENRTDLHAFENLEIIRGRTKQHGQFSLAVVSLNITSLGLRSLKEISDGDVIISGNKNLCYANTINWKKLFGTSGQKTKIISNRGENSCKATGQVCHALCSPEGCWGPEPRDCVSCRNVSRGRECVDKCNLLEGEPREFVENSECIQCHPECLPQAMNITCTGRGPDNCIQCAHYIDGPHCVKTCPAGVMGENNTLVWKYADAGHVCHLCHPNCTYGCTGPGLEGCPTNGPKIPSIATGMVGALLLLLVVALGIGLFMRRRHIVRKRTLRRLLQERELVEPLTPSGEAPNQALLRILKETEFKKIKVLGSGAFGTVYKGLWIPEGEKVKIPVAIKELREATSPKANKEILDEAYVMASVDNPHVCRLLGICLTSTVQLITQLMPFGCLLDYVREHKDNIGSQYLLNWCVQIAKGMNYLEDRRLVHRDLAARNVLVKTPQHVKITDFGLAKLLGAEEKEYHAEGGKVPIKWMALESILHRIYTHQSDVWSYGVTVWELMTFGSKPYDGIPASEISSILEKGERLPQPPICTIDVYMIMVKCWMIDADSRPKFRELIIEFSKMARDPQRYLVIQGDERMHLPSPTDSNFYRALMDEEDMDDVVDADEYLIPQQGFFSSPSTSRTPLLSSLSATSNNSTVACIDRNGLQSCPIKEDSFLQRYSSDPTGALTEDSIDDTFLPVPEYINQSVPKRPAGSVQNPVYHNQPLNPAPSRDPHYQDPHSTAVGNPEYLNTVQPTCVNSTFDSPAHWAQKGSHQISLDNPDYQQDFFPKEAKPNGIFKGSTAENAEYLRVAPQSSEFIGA
Chain of CSNK1A1L (Q8N752 whole entry): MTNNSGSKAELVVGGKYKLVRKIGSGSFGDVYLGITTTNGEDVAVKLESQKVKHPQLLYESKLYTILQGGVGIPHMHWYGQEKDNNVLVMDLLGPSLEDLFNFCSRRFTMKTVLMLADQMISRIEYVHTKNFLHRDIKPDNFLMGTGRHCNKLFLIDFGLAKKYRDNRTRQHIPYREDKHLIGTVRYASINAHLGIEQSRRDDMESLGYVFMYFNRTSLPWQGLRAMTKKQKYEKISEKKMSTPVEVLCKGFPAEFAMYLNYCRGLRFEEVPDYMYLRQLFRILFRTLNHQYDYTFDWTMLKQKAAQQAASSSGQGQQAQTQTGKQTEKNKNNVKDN
Chain of TAOK2 (Q9UL54 whole entry): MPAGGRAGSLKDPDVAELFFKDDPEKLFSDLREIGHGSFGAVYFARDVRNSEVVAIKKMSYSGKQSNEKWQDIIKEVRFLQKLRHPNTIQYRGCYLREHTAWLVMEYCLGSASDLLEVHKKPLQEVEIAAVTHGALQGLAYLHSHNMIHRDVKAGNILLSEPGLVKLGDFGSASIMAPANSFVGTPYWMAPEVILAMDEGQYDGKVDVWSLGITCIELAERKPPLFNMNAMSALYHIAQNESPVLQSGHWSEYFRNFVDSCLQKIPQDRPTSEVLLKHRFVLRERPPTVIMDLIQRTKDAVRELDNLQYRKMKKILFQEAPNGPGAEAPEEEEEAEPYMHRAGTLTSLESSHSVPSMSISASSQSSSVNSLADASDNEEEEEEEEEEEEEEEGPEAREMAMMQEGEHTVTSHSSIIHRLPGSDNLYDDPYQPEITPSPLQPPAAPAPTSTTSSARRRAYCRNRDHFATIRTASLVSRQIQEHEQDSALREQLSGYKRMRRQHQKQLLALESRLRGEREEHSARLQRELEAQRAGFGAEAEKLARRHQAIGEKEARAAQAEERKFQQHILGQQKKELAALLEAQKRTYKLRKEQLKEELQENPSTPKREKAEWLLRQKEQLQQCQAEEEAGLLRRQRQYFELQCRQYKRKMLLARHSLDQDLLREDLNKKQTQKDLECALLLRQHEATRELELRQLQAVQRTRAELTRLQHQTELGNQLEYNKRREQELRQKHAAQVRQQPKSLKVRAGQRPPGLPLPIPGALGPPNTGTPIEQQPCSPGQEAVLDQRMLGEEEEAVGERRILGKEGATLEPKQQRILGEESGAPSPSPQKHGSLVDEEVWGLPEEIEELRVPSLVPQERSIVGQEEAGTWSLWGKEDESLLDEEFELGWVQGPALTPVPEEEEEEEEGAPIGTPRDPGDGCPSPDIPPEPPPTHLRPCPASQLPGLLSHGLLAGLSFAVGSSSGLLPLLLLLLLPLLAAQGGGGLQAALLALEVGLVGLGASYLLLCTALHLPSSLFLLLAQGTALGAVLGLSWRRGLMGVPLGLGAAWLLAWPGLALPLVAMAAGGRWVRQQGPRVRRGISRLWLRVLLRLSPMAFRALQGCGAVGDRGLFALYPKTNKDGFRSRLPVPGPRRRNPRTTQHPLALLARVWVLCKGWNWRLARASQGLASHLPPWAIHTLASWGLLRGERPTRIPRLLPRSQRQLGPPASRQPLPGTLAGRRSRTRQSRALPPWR
Chain of AXL (P30530 whole entry): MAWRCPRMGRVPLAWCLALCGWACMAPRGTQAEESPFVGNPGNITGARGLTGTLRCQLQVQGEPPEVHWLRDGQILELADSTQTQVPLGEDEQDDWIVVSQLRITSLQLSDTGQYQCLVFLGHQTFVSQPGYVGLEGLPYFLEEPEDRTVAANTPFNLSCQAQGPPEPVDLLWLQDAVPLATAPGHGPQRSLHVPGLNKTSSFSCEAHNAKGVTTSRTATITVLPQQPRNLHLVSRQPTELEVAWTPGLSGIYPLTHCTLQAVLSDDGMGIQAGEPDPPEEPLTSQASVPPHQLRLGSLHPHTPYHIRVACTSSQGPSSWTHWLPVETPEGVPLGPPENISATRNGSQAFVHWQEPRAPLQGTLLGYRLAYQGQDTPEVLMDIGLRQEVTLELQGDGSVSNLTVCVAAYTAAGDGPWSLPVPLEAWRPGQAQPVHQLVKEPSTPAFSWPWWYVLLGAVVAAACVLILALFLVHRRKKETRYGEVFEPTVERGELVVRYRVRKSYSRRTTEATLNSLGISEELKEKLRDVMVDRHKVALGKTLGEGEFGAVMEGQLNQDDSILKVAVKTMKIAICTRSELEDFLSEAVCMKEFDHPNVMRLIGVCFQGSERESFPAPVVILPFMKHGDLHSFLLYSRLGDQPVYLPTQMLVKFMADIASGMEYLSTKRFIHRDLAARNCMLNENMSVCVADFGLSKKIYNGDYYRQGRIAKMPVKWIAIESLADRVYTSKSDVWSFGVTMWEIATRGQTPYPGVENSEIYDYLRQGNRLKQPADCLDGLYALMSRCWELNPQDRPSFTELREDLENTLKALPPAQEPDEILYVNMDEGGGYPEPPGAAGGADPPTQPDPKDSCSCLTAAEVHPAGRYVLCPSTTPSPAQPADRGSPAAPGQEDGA
Chain of LCK (P06239 whole entry): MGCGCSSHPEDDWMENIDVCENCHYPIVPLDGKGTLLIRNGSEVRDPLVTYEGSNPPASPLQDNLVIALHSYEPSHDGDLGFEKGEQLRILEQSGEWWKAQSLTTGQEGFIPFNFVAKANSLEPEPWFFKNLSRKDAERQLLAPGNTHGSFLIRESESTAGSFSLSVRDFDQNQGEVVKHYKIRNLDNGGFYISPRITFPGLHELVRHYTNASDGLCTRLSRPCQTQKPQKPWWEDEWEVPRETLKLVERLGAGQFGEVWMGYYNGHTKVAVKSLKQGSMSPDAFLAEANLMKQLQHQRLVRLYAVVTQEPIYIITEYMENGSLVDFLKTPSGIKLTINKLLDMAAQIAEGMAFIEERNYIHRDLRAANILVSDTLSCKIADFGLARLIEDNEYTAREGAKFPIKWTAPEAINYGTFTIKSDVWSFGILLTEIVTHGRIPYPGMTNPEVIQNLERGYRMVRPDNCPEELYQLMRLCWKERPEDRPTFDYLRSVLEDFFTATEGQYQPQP
Chain of BMPR1A (P36894 whole entry): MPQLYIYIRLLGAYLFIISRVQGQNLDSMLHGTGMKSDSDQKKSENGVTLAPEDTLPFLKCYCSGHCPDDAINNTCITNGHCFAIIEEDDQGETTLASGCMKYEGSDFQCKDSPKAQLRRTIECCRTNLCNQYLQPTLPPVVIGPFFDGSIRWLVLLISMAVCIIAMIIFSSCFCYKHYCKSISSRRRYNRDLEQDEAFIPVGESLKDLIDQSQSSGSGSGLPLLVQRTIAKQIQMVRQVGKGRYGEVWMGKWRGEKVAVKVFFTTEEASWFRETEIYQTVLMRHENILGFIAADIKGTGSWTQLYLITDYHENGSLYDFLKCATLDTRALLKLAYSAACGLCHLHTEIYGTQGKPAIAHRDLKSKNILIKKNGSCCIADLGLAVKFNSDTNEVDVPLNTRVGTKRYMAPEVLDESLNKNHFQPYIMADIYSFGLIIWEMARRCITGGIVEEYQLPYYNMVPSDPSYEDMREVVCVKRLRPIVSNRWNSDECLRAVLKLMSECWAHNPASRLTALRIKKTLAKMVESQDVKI
Chain of PIM1 (P11309 whole entry): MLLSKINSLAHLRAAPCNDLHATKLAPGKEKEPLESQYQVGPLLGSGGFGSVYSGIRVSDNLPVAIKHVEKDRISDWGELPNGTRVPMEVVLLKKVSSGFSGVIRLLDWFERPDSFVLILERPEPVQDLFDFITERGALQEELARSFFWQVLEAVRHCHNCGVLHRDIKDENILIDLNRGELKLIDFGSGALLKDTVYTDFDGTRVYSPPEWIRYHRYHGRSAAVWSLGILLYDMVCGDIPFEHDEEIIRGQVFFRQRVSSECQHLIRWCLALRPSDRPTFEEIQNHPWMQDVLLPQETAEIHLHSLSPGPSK

## Cn1c(=O)[nH]c2ccc(-c3cccc(C(=O)NC4CCn5ccnc5C4)c3)cc21 (stereo not shown) [Z36-MP5]
ALK(C1156Y)
  remaining binding at 1 µM: 92%
AXL
  remaining binding at 1 µM: 94%
BMPR1A
  remaining binding at 1 µM: 100%
BTK
  remaining binding at 1 µM: 89%
CSF1R
  remaining binding at 1 µM: 91%
CSNK1A1L
  remaining binding at 1 µM: 99%
EGFR
  remaining binding at 1 µM: 97%
EPHA8
  remaining binding at 1 µM: 75%
ERK5
  remaining binding at 1 µM: 86%
FLT4
  remaining binding at 1 µM: 80%
HCK
  remaining binding at 1 µM: 95%
HIPK4
  remaining binding at 1 µM: 91%
HPK1
  remaining binding at 1 µM: 83%
JNK1
  remaining binding at 1 µM: 61%
JNK2
  remaining binding at 1 µM: 54%
LCK
  remaining binding at 1 µM: 49%
LRRK2
  remaining binding at 1 µM: 71%
MRCKA
  remaining binding at 1 µM: 100%
NEK1
  remaining binding at 1 µM: 81%
PIM1
  remaining binding at 1 µM: 90%
PRKCI
  remaining binding at 1 µM: 71%
PRKD3
  remaining binding at 1 µM: 91%
SBK1
  remaining binding at 1 µM: 74%
TAOK2
  remaining binding at 1 µM: 87%
TXK
  remaining binding at 1 µM: 98%
